Consider 19 molecules from article PMC6098951, “Design and synthesis of new esters of terpenoid alcohols as 15-lipoxygenase inhibitors” (Iranian Journal of Basic Medical Sciences, 2018).

The target in data set [1] is T1, SLO (soybean 15-lipoxygenase: L1; EC 1,13,11,12) (Glycine max, UniProt P08170).
T1 sequence (P08170 1-839): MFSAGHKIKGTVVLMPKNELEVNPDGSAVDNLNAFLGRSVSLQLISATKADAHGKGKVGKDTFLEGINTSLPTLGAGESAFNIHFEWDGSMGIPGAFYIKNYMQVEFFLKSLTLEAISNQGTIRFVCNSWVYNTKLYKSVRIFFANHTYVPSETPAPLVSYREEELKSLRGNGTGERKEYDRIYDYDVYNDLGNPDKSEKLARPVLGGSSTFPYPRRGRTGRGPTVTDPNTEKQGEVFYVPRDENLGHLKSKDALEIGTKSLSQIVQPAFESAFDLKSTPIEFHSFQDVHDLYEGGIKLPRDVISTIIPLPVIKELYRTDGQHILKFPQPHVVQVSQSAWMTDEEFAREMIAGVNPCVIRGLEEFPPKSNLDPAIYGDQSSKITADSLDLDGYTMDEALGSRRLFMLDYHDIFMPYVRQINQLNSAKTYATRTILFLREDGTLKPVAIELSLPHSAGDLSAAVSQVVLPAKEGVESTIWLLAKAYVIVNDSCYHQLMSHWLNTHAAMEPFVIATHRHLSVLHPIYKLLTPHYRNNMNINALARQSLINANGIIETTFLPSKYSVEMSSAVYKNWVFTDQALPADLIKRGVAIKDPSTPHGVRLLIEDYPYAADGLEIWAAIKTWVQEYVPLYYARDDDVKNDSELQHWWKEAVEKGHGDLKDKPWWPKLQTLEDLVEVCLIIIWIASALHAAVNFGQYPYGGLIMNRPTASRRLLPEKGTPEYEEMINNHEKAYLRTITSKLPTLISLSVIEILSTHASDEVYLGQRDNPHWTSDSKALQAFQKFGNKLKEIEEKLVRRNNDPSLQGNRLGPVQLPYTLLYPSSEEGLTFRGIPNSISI
In words: 15-lipoxygenase inhibitory assessment (peroxide formation method). Type of data set: biochemical. The following applies: for IC50: SLO. As to the method: Linoleic acid and two assay solutions (A and B) were prepared in advance. Solution A was 50 mM (3-dimethylaminobenzoic acid) (DMAB) in l00 mM phosphate buffer (pH 7.0). Solution B was a mixture of l0 mM (3-methyl-2-benzothiazolonhydrazone) (MBTH) (3 ml), hemoglobin (5 mg/ml, 3 ml) in 50 mM phosphate buffer at pH 5.0 (25 ml). A linoleic acid solution was prepared by mixing 5 mg of linoleic acid with 0.5 ml ethanol and then diluting with KOH 100 mM to a final volume of 5 ml. In the standard assay, the sample in ethanol (25 µl), SLO (4,000 units/ml in 50 mM phosphate buffer pH 7.0; 25 µl), and phosphate buffer pH 7.0 (50 mM; 900 µl) were mixed in a test tube, and pre-incubation was carried out for 5 min at room temperature. A control test was performed with the same volume of ethanol. After pre-incubation, linoleic acid solution (50 µl) was added to start the peroxidation reaction, and, 7 min later, solution A (270 µl) and then solution B (130 µl) were added to start the color formation. Further, 5 min later, 200 µl of a 2 % sodium dodecyl sulfate (SDS) solution was added to terminate the reaction. The absorbance at 598 nm was compared to control test.
The inhibitory activity of all synthetic compounds against SLO (soybean 15-lipoxygenase: L1; EC 1,13,11,12) was determined using the peroxide formation method ([13], [14]). In this method, the basis of evaluation of lipoxygenase activity is measuring the concentration of fatty acid peroxide. All measurements were compared with 4-methyl-2-(4-methylpiperazinyl)pyrimido[4,5-b]benzothiazine (4-MMPB), one of the known lipoxygenase inhibitors (Table 1).

Data set [2] can be described thus: DPPH bleaching (radical scavenging). Conditions: 25 μM DPPH in ethanol, 30 min at room temperature, absorbance 517 nm; ± SEM. As for the experimental part: DPPH solution (25 μM) in absolute ethanol was prepared. […] Ethanol was used as control solution. After 30 min at room temperature, the absorbance was recorded at 517 nm.
The radical scavenging ability of all synthetic compounds using stable free radicals (DPPH: 2,2-diphenyl-
1-picrylhydrazyl) has been previously measured (Table 1) ([15]). In this assessment, the DPPH bleaching potency of the synthetic compounds has been reported as IC50 values.
(In general: Loss of DPPH colour is used to gauge radical scavenging.)

The mark [3] stands for this setting: linoleic acid substrate, pH 7.0, absorbance 598 nm, ± SEM, read-out: Lipoxygenase inhibition IC50.
[4] abbreviates: read-out: IC50 inhibitory activity against soybean 15-lipoxygenase (abstract).

Like-named read-outs stand apart in the source and are kept apart here. A value given as a limit tells only on which side of the number the result lay.

Turning to `COc1cc(C(=O)O[C@@H]2CC3CCC2(C)C3(C)C)ccc1O` (stereo partly drawn) [2h, (2R)-1,7,7-trimethylbicyclo[2.2.1]heptan-2-yl 4-hydroxy-3-methoxybenzoate], the IC50 was 273 ± 11.3 µM in data set [1] (setting [3]) and more than 500 µM in data set [2].

Consider `O=C(NC12CC3CC(CC(C3)C1)C2)c1ccc(O)c(O)c1` [3a', N-((3s,5s,7s)-adamantan-1-yl)-3,4-dihydroxybenzamide], for which the melting point fell in the range of 209 to 211 °C. The IC50 in data set [1] (setting [3]) was 5.4 ± 0.55 µM. The IC50 in data set [2] was 6.5 ± 0.43 µM.

In the case of `CC12CCC(C1)C(C)(C)[C@H]2OC(=O)/C=C/c1ccc(O)c(O)c1` (stereo partly drawn) [2g, (2S)-1,3,3-trimethylbicyclo[2.2.1]heptan-2-yl (E)-3-(3,4-dihydroxyphenyl)acrylate], the IC50 in data set [1] (setting [3]) amounted to 1.67 ± 0.22 µM; in data set [2], 10.9 ± 1.1 µM.

`COc1cc(/C=C/C(=O)NC23CC4CC(CC(C4)C2)C3)ccc1O` [3b', (E)-N-((3s,5s,7s)-adamantan-1-yl)-3-(4-hydroxy-3-methoxyphenyl)acrylamide] had a melting point of 130 to 132 °C. Moreover, the IC50 in data set [1] (setting [3]) came to 188 ± 14 µM. This molecule also registered a concentration for half-maximal inhibition (IC50) in data set [2] of 5.05 ± 4.08 µM.

For the molecule `CC12CCC(C1)C(C)(C)[C@H]2OC(=O)c1cc(O)c(O)c(O)c1` (stereo partly drawn) [2e, (2S)-1,3,3-trimethylbicyclo[2.2.1]heptan-2-yl 3,4,5-trihydroxybenzoate], the melting point fell in the range of 171 to 173 °C. Besides, the IC50 in data set [1] (setting [3]) worked out at 1.71 ± 0.41 µM. The same molecule gave a 50% inhibitory concentration (IC50) in data set [2] of 3.46 ± 0.33 µM.

As to `COc1cccc(C(=O)O[C@H]2C3(C)CCC(C3)C2(C)C)c1` (stereo partly drawn) [2c, (2S)-1,3,3-trimethylbicyclo[2.2.1]heptan-2-yl 3-methoxybenzoate], the IC50 in data set [1] (setting [3]) and in data set [2] was more than 500 µM each time.

As for `COc1cc(C(=O)O[C@H]2C3(C)CCC(C3)C2(C)C)ccc1O` (stereo partly drawn) [2a, (2S)-1,3,3-trimethylbicyclo[2.2.1]heptan-2-yl 4-hydroxy-3-methoxybenzoate], the melting point was 120 to 122 °C. In addition, the concentration for half-maximal inhibition (IC50) in data set [1] (setting [3]) is 40.1 ± 2.2 µM. Besides, in data set [2], the IC50 is more than 500 µM.

On to `CC1(C)C2CCC1(C)[C@H](OC(=O)c1ccc(O)c(O)c1)C2` (stereo partly drawn) [2o, (2R)-1,7,7-trimethylbicyclo[2.2.1]heptan-2-yl 3,4-dihydroxybenzoate], for which the melting point was 40 to 42 °C. In data set [1] (setting [4]), the 50% inhibitory concentration (IC50) amounted to 0.78 µM. The same molecule showed an IC50 in data set [2] of 9.4 ± 0.81 µM.

`CCOC(=O)c1ccc(O)c(O)c1` [2p, ethyl catechuate]: the IC50 in data set [1] (setting [3]) is 6.5 ± 0.53 µM; in data set [2] it was 9.2 ± 0.45 µM. In addition, in data set [1] (lipoxygenase inhibition IC50 compared with 2b), the “fold less inhibitory potency versus 2b” value is “about 5 fold”.

`O=C(OC12CC3CC(CC(C3)C1)C2)c1ccc(O)c(O)c1` [2j, (3s,5s,7s)-adamantan-1-yl 3,4-dihydroxybenzoate] showed a melting point of 170 to 173 °C. For the same molecule, the concentration for half-maximal inhibition (IC50) in data set [1] (setting [4]) was determined as 0.95 µM. The same molecule came in with an IC50 in data set [2] of 9.1 ± 0.79 µM.

In the case of `O=C(/C=C/c1ccc(O)c(O)c1)OC12CC3CC(CC(C3)C1)C2` [2l, (3s,5s,7s)-adamantan-1-yl (E)-3-(3,4-dihydroxyphenyl) acrylate], the melting point fell in the range of 191 to 196 °C. The IC50 in data set [1] (setting [3]) turned out to be 3.9 ± 0.61 µM. The molecule further displayed an IC50 in data set [2] of 18 ± 1.9 µM.

As for `COc1cc(/C=C/C(=O)O[C@H]2C3(C)CCC(C3)C2(C)C)ccc1O` (stereo partly drawn) [2f, (2S)-1,3,3-trimethylbicyclo[2.2.1]heptan-2-yl(E)-3-(4-hydroxy-3-methoxyphenyl)acrylate], the results for the half-inhibitory concentration (IC50) in data set [1] (setting [3]) and in data set [2] were 194 ± 11.3 µM and more than 500 µM, respectively.

As to `Cc1nc(N2CCN(C)CC2)nc2c1Sc1ccccc1N2` [4-MMPB, 4-methyl-2-(4-methylpiperazinyl)pyrimido[4,5-b]benzothiazine, reference compound], the IC50 in data set [1] (setting [3]) is 38.5 ± 1.97 µM; in data set [2], 17.1 ± 2 µM.

For `COc1ccc(C(=O)O[C@H]2C3(C)CCC(C3)C2(C)C)cc1OC` (stereo partly drawn) [2d, (2S)-1,3,3-trimethylbicyclo[2.2.1]heptan-2-yl 3,4-dimethoxybenzoate], the IC50 in data set [1] (setting [3]) and in data set [2] was more than 500 µM each time.

As to `COc1cc(C(=O)OC23CC4CC(CC(C4)C2)C3)ccc1O` [2i, (3s,5s,7s)-adamantan-1-yl 4-hydroxy-3-methoxy benzoate], the melting point lay within 136 to 139 °C. For the same molecule, the IC50 in data set [1] (setting [3]) was determined as 164 ± 13.2 µM. For the same molecule, in data set [2], the IC50 was more than 500 µM.

On to `O=C(/C=C/c1ccc(O)c(O)c1)OCC12CC3CC(CC(C3)C1)C2` [2n, ((3r,5r,7r)-adamantan-1-yl)methyl(E)-3-(3,4-dihydroxyphenyl)acrylate], for which the melting point lay within 161 to 164 °C. Moreover, the IC50 in data set [1] (setting [3]) amounted to 2.7 ± 0.13 µM. Besides, the IC50 in data set [2] came out at 5.98 ± 0.53 µM.

As for `O=C(OCC12CC3CC(CC(C3)C1)C2)c1ccc(O)c(O)c1` [2m, (3r,5r,7r)-adamantan-1-yl)methyl 3,4-dihydroxybenzoate], the melting point lay in the range of 212 to 217 °C. Moreover, the half-inhibitory concentration (IC50) in data set [1] (setting [3]) worked out at 3.57 ± 0.19 µM. In data set [2], this molecule registered an IC50 of 10.8 ± 0.67 µM.

Regarding `CC12CCC(C1)C(C)(C)[C@H]2OC(=O)c1ccc(O)c(O)c1` (stereo partly drawn) [2b, (2S)-1,3,3-trimethylbicyclo[2.2.1]heptan-2-yl 3,4-dihydroxybenzoate], the melting point fell in the range of 58 to 61 °C. For the same molecule, the IC50 in data set [1] (setting [3]) came out at 1.68 ± 0.61 µM. The same molecule registered an IC50 in data set [2] of 10 ± 1 µM.

In turn, `O=C(OC12CC3CC(CC(C3)C1)C2)c1cc(O)c(O)c(O)c1` [2k, (3s,5s,7s)-adamantan-1-yl 3,4,5-trihydroxybenzoate] had a melting point of 195 to 199 °C. Moreover, in data set [1] (setting [3]), the IC50 was found to be 2.28 ± 0.1 µM. The same molecule came in with an IC50 in data set [2] of 4.5 ± 0.19 µM.

By IC50 is commonly meant the concentration at which inhibition is half-maximal. In general, melting point refers to the temperature, or range, at which the solid turns liquid.
